Source: patent publication US20150366819A1, “COMPOSITIONS AND METHODS FOR TREATING HOOF DISEASES” (AGROCHEM, INC., priority 2008, published 2015)

Legend:
[1] = test system: Hydrolyzed Bovine Dry Collagen protein medium; test: Cross-linking test: skin (crust) formation on protein medium after spraying
Procedure: Tests were performed in order to obtain a skin (crust) on the protein medium by using a cross-linking agent. Time, temperature and skim formation were monitored. Tests were performed at 40° F.—both medium and solutions were cooled to test temperature. Test medium was prepared by mixing a solution containing 85% D.I. water and 15% Hydrolyzed Bovine Dry Collagen (purchased from Milligan & Higgens). Approx 4 oz of the preparation was put into Petri dishes, placed in a refrigerator for thirty minutes before reacclimatizing at room temperature, ready for testing. Subsequently, the various test solutions were poured into 4 oz bottles with spray nozzles and 10 ml of solution was sprayed onto the medium in the petri dishes from a distance of 6 inches, timed and viewed at 15 minute intervals and the contents of the petri dish was then scored for skin formation. The time and extent of skin formation was noted and transposed to graphs (see FIGS. 1-4).
A second series of tests were run using Egg Albumin Powder (purchased from J.T. Baker) as the protein medium, prepared by mixing 85% D.I. water and 15% Egg Albumin Powder. Both test produced identical results.
Lab testing was performed to assess cross-linking ability of various compositions. […]

[2] = test system: digital dermatitis lesions; test: Actual field application on digital dermatitis lesions (scab formation); type: in vivo, cow; settings: glutaraldehyde at less than 5%, applied on digital dermatitis lesions

Structure (SMILES) | cross-linking of test samples (in words) ([1]; glutaraldehyde reduced to less than 5%, FIG. 2) | facilitating adequate scab formation in an acceptable time span [2] | cross-linking effects, maximum extent of skin formation ([1]; glyoxal alone, scored from 0 to 10, FIG. 3)
O=CCCCC=O [glutaraldehyde] | significantly less cross-linking | ineffective | 
O=CC=O [glyoxal] |  |  | 2.5
